Experimental data published in US20210077498A1, “TRANSIENT PROTECTION OF HEMATOPOIETIC STEM AND PROGENITOR CELLS AGAINST IONIZING RADIATION” (G1 Therapeutics, Inc., priority 2015, published 2021).

Experiments:
HS68 cells = assay: G1 arrest (cellular G1 and S-phase) assay, propidium iodide flow cytometry; type: cell-based; conditions: Homo sapiens
Method: For determination of cellular fractions in various stages of the cell cycle following various treatments, HS68 cells (human skin fibroblast cell line (Rb-positive)) were stained with propidium iodide staining solution and run on Dako Cyan Flow Cytometer. The fraction of cells in G0-G1 DNA cell cycle versus the fraction in S-phase DNA cell cycle was determined using FlowJo 7.2.2 analysis.
Formulas I, II, III, and IV were tested for their ability to arrest HS68 cells at the G1 phase of the cell cycle.

[1] = test system: H69 (human small cell lung cancer, Rb-negative) cells; assay: CellTiter-Glo cellular proliferation assay, H69; type: cell-based; conditions: NCI-H69, 96 h, four days
Method: (§1) Cellular proliferation assays were conducted using the following Rb-negative cancer cell lines: H69 (human small cell lung cancer—Rb-negative) cells or A2058 (human metastatic melanoma cells—Rb-negative). These cells were seeded in Costar (Tewksbury, Mass.) 3093 96 well tissue culture treated white walled/clear bottom plates. Cells were treated Formulas I, II, III, or IV as nine point dose response dilution series from 10 uM to 1 nM. Cells were exposed to compounds and then cell viability was determined after either four (H69) or six (A2058) days as indicated using the CellTiter-Glo® luminescent cell viability assay (CTG; Promega, Madison, Wis., United States of America) following the manufacturer's recommendations. Plates were read on BioTek (Winooski, Vt.) Syngergy2 multi-mode plate reader. The Relative Light Units (RLU) were plotted as a result of variable molar concentration and data was analyzed using Graphpad (LaJolla, Californaia) Prism 5 statistical software to determine the EC50 for each compound.

[2] = test system: A2058 (human metastatic melanoma cells, Rb-negative); assay: CellTiter-Glo cellular proliferation assay, A2058; type: cell-based; conditions: A2058, 144 h, six days
Method: as §1

WM2664 or tHS68 = assay: Proliferation by EdU incorporation, RB-intact CDK4/6-dependent cell line; type: cell-based; conditions: 24 hours; WM2664 for PD0332991 (300 nM), tHS68 for Formula I and III (300 nM or 1000 nM)
Method: (§2) SCLC cells were treated with DMSO or the indicated CDK4/6 inhibitor for 24 hours. The effect of CDK4/6 inhibition on proliferation was measured by EdU incorporation. An RB-intact, CDK4/6-dependent cell line (WM2664 or tHS68) and a panel of RB-negative SCLC cell lines (H69, H82, H209, H345, NCI417, or SHP-77) were analyzed for growth inhibition by the various CDK4/6 inhibitors.

[3] = test system: RB-negative SCLC cell lines (H69, H82, H209, H345, NCI417, SHP-77); assay: Proliferation by EdU incorporation, RB-negative SCLC cell lines; type: cell-based; conditions: 24 hours; PD0332991 300 nM, Formula I and III 300 nM or 1000 nM
Method: as §2

[4] = test system: human renal proximal tubule epithelial cells (Rb-positive); assay: Cellular wash-out experiment, renal cells; type: cell-based; conditions: 300 nM
Method: Alternatively, the same experiment was done using normal Renal Proximal Tubule Epithelial Cells (Rb-positive) obtained from American Type Culture Collection (ATCC, Manassas, Va.). Cells were grown in an incubator at 37° C. in a humidified atmosphere of 5% CO2 in Renal Epithelial Cell Basal Media (ATCC) supplemented with Renal Epithelial Cell Growth Kit (ATCC) in 37° C. humidified incubator.
Upon harvesting cells, samples were stained with propidium iodide staining solution and samples run on Dako Cyan Flow Cytometer. The fraction of cells in G0-G1 DNA cell cycle versus the fraction in S-phase DNA cell cycle was determined using FlowJo 7.2.2 analysis.

HSPC [5] = assay: PK half-life and HSPC cell cycle arrest of PD0332991 in humans; type: in vivo
[6] = test system: HSPC (LKS+) and myeloid progenitor cells (LKS−); conditions: single dose 150 mg/kg oral gavage, mice; cited from earlier work
[7] = Grade 3/4 neutropenia and leukopenia; cited from earlier work
HSPC [8] = conditions: in humans; cited from earlier work
[9] = test system: CDK4/6-dependent cell lines; conditions: cited from earlier work
[10] = test system: CDK4/6 independent Rb-null melanoma cell line A2058; conditions: cited from earlier work
[11] = test system: mice exposed to peri-lethal and lethal TBI; conditions: compared to untreated controls; cited from earlier work
[12] = test system: 456 (395 non-mutant) kinases; assay: DiscoveRx KINOMEscan profiling; type: binding; conditions: single concentration of 1000 nM
tHS68 cells [13] = assay: Cell cycle arrest in CDK4/6-dependent cells, propidium iodide flow cytometry; type: cell-based
Text: To test the ability of CDK4/6 inhibitors to induce a clean G1-arrest, a cell based screening method was used consisting of two CDK4/6-dependent cell lines (tHS68 and WM2664; Rb-positive) and one CDK4/6-independent (A2058; Rb-negative) cell line. […] At the conclusion of the experiment, cells were harvested, fixed, and stained with propidium iodide (a DNA intercalator), which fluoresces strongly red (emission maximum 637 nm) when excited by 488 nm light. Samples were run on Dako Cyan flow cytometer and >10,000 events were collected for each sample. Data were analyzed using FlowJo 2.2 software developed by TreeStar, Inc.

[14] = Metabolic stability in liver microsomes; type: in vitro ADME, and mouse; conditions: each of the species tested (human, monkey, dog, rat, mouse); 1 uM, 0.5 mg/mL microsomes
Method: Human, mouse, and dog liver microsomes were purchased from Xenotech, and Sprague-Dawley rat liver microsomes were prepared by Absorption Systems. The reaction mixture comprising 0.5 mg/mL of liver microsomes, 100 mM of potassium phosphate, pH 7.4, 5 mM of magnesium chloride, and 1 uM of test compound was prepared. The test compound was added into the reaction mixture at a final concentration of 1 uM. An aliquot of the reaction mixture (without cofactor) was incubated in shaking water bath at 37 deg. C. for 3 minutes. The control compound, testosterone, was run simultaneously with the test compound in a separate reaction. The reaction was initiated by the addition of cofactor (NADPH), and the mixture was then incubated in a shaking water bath at 37 deg. C. Aliquots (100 μL) were withdrawn at 0, 10, 20, 30, and 60 minutes for the test compound and 0, 10, 30, and 60 minutes for testosterone. […] Test compound samples were analyzed using the Orbitrap high resolution mass spectrometer to quantify the disappearance of parent test compound and detect the appearance of metabolites. […] Half-lives were calculated using GraphPad software, fitting to a single-phase exponential decay equation.
When calculated half-life was longer than the duration of the experiment, the half-life was expressed as > the longest incubation time. The calculated half-life is also listed in parentheses. […]

tHDF cells = assay: Caspase 3/7 assay after irradiation; type: cell-based; conditions: 100, 300 or 1,000 nM after 6, 8 or 10 Gy
Method: (§3) DNA damage was determined using the g-H2A.X assay and apoptosis was determined with a Caspase 3/7 assay. For the g-H2AX assay, tHS68 cells were fixed and stained using the g-H2A.X Phosphorylation Assay Kit (Flow Cytometry; Millipore, Temecula, Calif.) by the manufacturer's instructions. g-H2AX-positive tHDF cells were then quantified using a CyAn ADP Analyzer (Beckman Coulter, Indianapolis, Ind.) and FlowJo analysis software (Version 7.2.2; Tree Star, Ashland, Oreg.). For the in vitro caspase 3/7 assay, tHDF cells were analyzed directly in the 96-well plates 24 hours after radiation or staurosporine treatment. Caspase 3/7 activation was measured using the Caspase-Glo 3/7 Assay System (Promega, Madison, Wis.) by following the manufacturer's instructions.
(§4) For the g-H2AX assay, 30,000 cells were plated per well in 12-well plates. For the caspase 3/7 assay, 1,000 cells were plated per well in 96-well white wall clear bottom plates. Cells were incubated at 37° C. in a humidified atmosphere of 5% CO2 for 24 hours and then irradiated at 6 Gy, 8 Gy, or 10 Gy.

tHS68 cells [15] = assay: g-H2A.X assay after irradiation; type: cell-based; conditions: 100, 300 or 1,000 nM after 6, 8 or 10 Gy
Method: as §3, §4

[16] = test system: mice after total body irradiation; assay: Radiomitigation, survival after total body irradiation; type: in vivo
Method: Wild-type mice, young adult (8-12 weeks of age) C57BL/6 (The Jackson Laboratory) or C3H (Harlan Sprague-Dawley) animals were used. Animals were irradiated using a 137Cs AECL GammaCell 40 Irradiator (Atomic Energy of Canada) or a XRAD320 (Precision XRay Inc.) biological irradiator. Experiments were carried out using the 137Cs source, unless otherwise noted.

[17] = single oral dose 150 mg/kg 12 hours after exposure

O=C1NCC2(CCCCC2)n2c1cc1cnc(Nc3ccc(N4CCC(N5CCOCC5)CC4)cn3)nc12 [Formula IV, 2′-((5-(4-morpholinopiperidin-1-yl)pyridin-2-yl)amino)-7′,8′-dihydro-6′H-spiro[cyclohexane-1,9′-pyrazino[1′,2′:1,5]pyrrolo[2,3-d]pyrimidin]-6′-one]
EC50 (HS68 cells): 25 nM | EC50 [1]: > 3000 nM | EC50 [2]: > 3000 nM

CC(=O)c1c(C)c2cnc(Nc3ccc(N4CCNCC4)cn3)nc2n(C2CCCC2)c1=O [PD0332991, 6-acetyl-8-cyclopentyl-5-methyl-2-(5-piperazin-1-yl-pyridin-2-ylammino)-8H-pyrido-[2,3-d]-pyrimidin-7-one]
effect on proliferation (cells in S phase, EdU) of Rb-positive cell line (WM2664 or tHS68): inhibits | effect on growth (cells in S phase, EdU) of Rb-negative SCLC cell lines [3]: does not affect the growth | return to baseline levels of cell division after wash out [4]: took significantly longer to return to baseline levels of cell division | total time for normal bone marrow function to return (HSPC [5]): ≥ 7 days | time to clear the compound (HSPC [5]; 5 half-lives × 27 hour half-life): 6 days | duration of cell cycle arrest of HSPC (HSPC [5]; single administration): approximately one week | duration of sustained reduction in HSPC (LKS+) and myeloid progenitor (LKS−) EdU incorporation [6]: greater than 36 hours | time post oral dosing of return to baseline cell division [6]: 48 h | patients requiring a dose interruption [7]: 71% | patients requiring a dose reduction [7]: 35% | PK half-life (HSPC [8]): 27 h | IR protection [9]: exhibited IR protective characteristics | G1 arrest [10]: did not G1 arrest | protection from IR exposure [10]: failed to protect | HSPC protection and survival after TBI [11]: protect HSPCs and improve survival of mice

CC(C)N1CCN(c2ccc(Nc3ncc4cc5n(c4n3)C3(CCCCC3)CNC5=O)nc2)CC1 [Formula III, 2′-((5-(4-isopropylpiperazin-1-yl)pyridin-2-yl)amino)-7′,8′-dihydro-6′H-spiro[cyclohexane-1,9′-pyrazino[1′,2′:1,5]pyrrolo[2,3-d]pyrimidin]-6′-one]
EC50 (HS68 cells): 80 nM | effect on proliferation (cells in S phase, EdU) of Rb-positive cell line (WM2664 or tHS68): inhibits | effect on growth (cells in S phase, EdU) of Rb-negative SCLC cell lines [3]: does not affect the growth | EC50 [1]: 2920 nM | EC50 [2]: 2690 nM

O=C1NCC2(CCCCC2)n2c1cc1cnc(Nc3ccc(N4CCNCC4)cn3)nc12 [Formula II, 2′-((5-(piperazin-1-yl)pyridin-2-yl)amino)-7′,8′-dihydro-6′H-spiro[cyclohexane-1,9′-pyrazino[1′,2′:1,5]pyrrolo[2,3-d]pyrimidin]-6′-one]
EC50 (HS68 cells): 100 nM | EC50 [1]: > 3000 nM | EC50 [2]: 2610 nM

CN1CCN(c2ccc(Nc3ncc4cc5n(c4n3)C3(CCCCC3)CNC5=O)nc2)CC1 [Formula I, 2′-((5-(4-methylpiperazin-1-yl)pyridin-2-yl)amino)-7′,8′-dihydro-6′H-spiro[cyclohexane-1,9′-pyrazino[1′,2′:1,5]pyrrolo[2,3-d]pyrimidin]-6′-one]
number of 395 non-mutant kinases inhibited, threshold 65% ([12]; inhibitory threshold 65%): 92 | number of 395 non-mutant kinases inhibited, threshold 90% ([12]; inhibitory threshold 90%): 31 | number of 395 non-mutant kinases inhibited, threshold 99% ([12]; inhibitory threshold 99%): 6 | EC50 (HS68 cells): 100 nM | cells in S-phase at the highest concentration shown (tHS68 cells [13]; tHS68, 24 hours, 28% at baseline): 6% | EC50 (tHS68 cells [13]; tHS68 cells, 24 hours, read-out: G1 cell cycle arrest EC50): 80 nM | effect on proliferation (cells in S phase, EdU) of Rb-positive cell line (WM2664 or tHS68): inhibits | effect on growth (cells in S phase, EdU) of Rb-negative SCLC cell lines [3]: does not affect the growth | EC50 [1]: > 3000 nM | EC50 [2]: > 3000 nM | half-life in liver microsomes [14]: shorter half-life than PD0332991 | radiation induced apoptosis (caspase 3/7 activity) (tHDF cells): dose dependent decrease in radiation induced apoptosis | radiation induced DNA damage (H2AX foci) (tHS68 cells [15]): dose dependent decrease in radiation induced DNA damage | survival after 7.5 Gy TBI, two doses ([16]; 150 mg/kg oral at 12 hours and 24 hours post TBI): Survival was also enhanced | survival after 7.2 Gy TBI [16, 17]: provided radiomitigation | survival after 7.5 Gy TBI [16, 17]: significant survival effect
